According to the NIST ThermoML archive (doi:10.1016/j.jct.2013.09.015):

Tests used:
[1] = 298.15 K, 101.33 kPa, Liquid; for speed of sound: Sing-around technique in a fixed-path interferometer; for mass density: Vibrating tube method
[2] = excess molar enthalpy (molar enthalpy of mixing); xn = mol fraction of the nth substance listed; details: 298.15 K, 101 kPa, Liquid, Calvet calorimetry

CCn1cc[n+](C)c1.F[B-](F)(F)F [1-ethyl-3-methylimidazolium tetrafluoroborate]
[1]
Details	mass density [kg/m3]	speed of sound [m/s]
–	1279.91	1619.4

CCn1cc[n+](C)c1.F[B-](F)(F)F [1-ethyl-3-methylimidazolium tetrafluoroborate] + O
[2]
Details	excess molar enthalpy [kcal/mol]
x1 = 0.1136	0.0374
x1 = 0.1678	0.0537
x1 = 0.2249	0.0693
x1 = 0.2734	0.0812
x1 = 0.331	0.0934
x1 = 0.3615	0.0989
x1 = 0.4325	0.109
x1 = 0.4709	0.112
x1 = 0.5314	0.115
x1 = 0.5722	0.115
x1 = 0.6291	0.113
x1 = 0.6685	0.109
x1 = 0.7311	0.0986
x1 = 0.771	0.0898
x1 = 0.8324	0.0724
x1 = 0.8694	0.0596
x1 = 0.9103	0.0434
x1 = 0.9311	0.0343

O=C1CCCN1 [2-pyrrolidinone]
[1]
Details	mass density [kg/m3]	speed of sound [m/s]
–	1107.15	1633.9

O=C1CCCN1 [2-pyrrolidinone] + O
[2]
Details	excess molar enthalpy [kcal/mol]
x1 = 0.1013	-0.0589
x1 = 0.136	-0.0776
x1 = 0.1745	-0.0978
x1 = 0.2319	-0.125
x1 = 0.2775	-0.145
x1 = 0.3351	-0.166
x1 = 0.3813	-0.18
x1 = 0.4343	-0.193
x1 = 0.4783	-0.2
x1 = 0.5401	-0.205
x1 = 0.5713	-0.206
x1 = 0.6264	-0.201
x1 = 0.6771	-0.192
x1 = 0.7314	-0.177
x1 = 0.7693	-0.162
x1 = 0.8326	-0.13
x1 = 0.8951	-0.0899
x1 = 0.9204	-0.0708

O=C1CCCN1 [2-pyrrolidinone] + c1ccncc1
[2]
Details	excess molar enthalpy [kcal/mol]
x1 = 0.1213	0.0217
x1 = 0.1715	0.029
x1 = 0.2336	0.0366
x1 = 0.2615	0.0394
x1 = 0.3255	0.0446
x1 = 0.3701	0.0471
x1 = 0.4291	0.0489
x1 = 0.4711	0.0493
x1 = 0.5256	0.0485
x1 = 0.5713	0.0469
x1 = 0.6364	0.0431
x1 = 0.6716	0.0404
x1 = 0.7315	0.0348
x1 = 0.7619	0.0315
x1 = 0.8311	0.0232
x1 = 0.8751	0.0174
x1 = 0.9204	0.0112
x1 = 0.9344	0.00927

CN1CCCC1=O [N-methylpyrrolidone]
[1]
Details	mass density [kg/m3]	speed of sound [m/s]
–	1028.23	1546

c1ccncc1 [pyridine]
[1]
Details	mass density [kg/m3]	speed of sound [m/s]
–	978.252	1417.8

c1ccncc1 [pyridine] + CN1CCCC1=O
[2]
Details	excess molar enthalpy [kcal/mol]
x2 = 0.0911	-0.0363
x2 = 0.1426	-0.052
x2 = 0.1985	-0.0669
x2 = 0.2312	-0.0755
x2 = 0.2854	-0.086
x2 = 0.312	-0.0903
x2 = 0.3789	-0.097
x2 = 0.443	-0.103
x2 = 0.4995	-0.104
x2 = 0.5478	-0.102
x2 = 0.5851	-0.1
x2 = 0.6359	-0.0959
x2 = 0.6982	-0.0895
x2 = 0.725	-0.0852
x2 = 0.7732	-0.0742
x2 = 0.8489	-0.0552
x2 = 0.8923	-0.0427
x2 = 0.9156	-0.0345
